# Article PMC12084297, “Cytoplasmic connexin43-microtubule interactions promote glioblastoma stem-like cell maintenance and tumorigenicity” (Cell Death & Disease, 2025)
# How the values were obtained:
# Type in all cases: cell-based, human
# VTC-001 GSCs = test: Gliosphere formation assay, VTC-001 GSCs; settings: VTC-001, 10, 50 or 100 μM every other day, 2 weeks
# Experimental: (§1) GSCs and PDX GBM22 cells were plated as single cell suspension in low-attachment 96-well plates (GSCs: 100–500 cells per well; GBM22 cells: 500–2000 cells per well), using methods similar to those reported previously. Cells were then treated with peptides every other day. 2 weeks later, gliospheres were observed using phase contrast microscopy on a Revolve microscope (Echo Laboratories). The number of gliospheres was then determined, while the gliosphere size was assessed by diameter measurement. To evaluate stem cell frequency in GSCs, gliosphere formation assay was performed with limiting cell dilutions with cells plated at varying densities in low-attachment 96-well plates. Cells were treated with peptides every other day, and after 2 weeks, gliosphere-positive wells were observed and scored using phase contrast microscopy on a Revolve microscope. The stem cell frequency was analyzed using the online data analysis program ELDA (Extreme Limiting Dilution Analysis).
# VTC-034 GSCs = test: Limiting dilution analysis (ELDA), VTC-034 GSCs; settings: VTC-034, 100 μM every other day, 2 weeks; compared to JM2-scrambled or control
# Experimental: as §1
# (§2) All quantification was performed on experiments repeated at least three times. Statistical analysis was conducted with GraphPad Prism (GraphPad Software). Data were analyzed for significance using Student’s t test, one-way ANOVA with Tukey’s multiple comparisons test, and presented as mean ± SD. […] Statistical significance between experimental groups was determined using chi-square (χ²) tests within the ELDA framework. […]
# VTC-037 GSCs = test: Limiting dilution analysis (ELDA), VTC-037 GSCs; settings: VTC-037, 100 μM every other day, 2 weeks; compared to JM2-scrambled or control
# Experimental: as §1, §2
# Notch1 = Notch1 protein expression, immunoblot, VTC-001 GSCs; settings: 50 μM, 24 h
# Experimental: Cells were lysed in RIPA buffer (0.1% sodium dodecyl sulphate, 50 mM Tris pH 7.4, 150 mM NaCl, 1 mM EDTA, 1% Triton X-100, 1% deoxycholic acid, 200 μM Na3VO4, and 1 mM NaF) supplemented with Halt^TM Protease and Phosphatase Inhibitor Cocktail (Thermo Fisher). Lysates were sonicated prior to centrifugation at 4 °C for 20 min at 10,000 x g. Protein concentration was quantified using the DC protein assay (Bio-Rad Laboratories) and a standard curve obtained with increasing concentrations of Bovine Serum Albumin (BSA; Fisher Scientific). Protein samples were normalized to 20 μg total protein per lane and resolved by SDS-PAGE electrophoresis. 4X Bolt LDS sample buffer supplemented with 400 mM DTT (final concentration 1X Bolt LDS with 100 mM DTT) was added to samples before heating at 70 °C for 10 min. SDS-PAGE was run using NuPAGE Bis-Tris 4%–12% gradient gels (Thermo Fisher) with MES or MOPS running buffer according to manufacturer’s instructions. Spectra™ Multicolor Protein Ladder (Thermo Fisher) or Precision Plus Protein™ Kaleidoscope™ Prestained Protein Standards (Bio-Rad Laboratories) were included as protein ladders on the same gels. […] Membranes were imaged on a ChemiDoc™ imaging system, and analyzed with Image Lab software (Bio-Rad Laboratories). […]
# PDX GBM22 cells = test: Gliosphere formation assay, PDX GBM22 cells; settings: 100 μM every other day, 2 weeks
# Experimental: as §1
sequence,measurement,setting,value
VFFKGVKDRVKGRSD [JM2],GSC-dependent gliosphere formation,VTC-001 GSCs,"inhibits VTC-001, VTC-034, and VTC-037 GSC-dependent gliosphere formation in a dose-dependent manner"
same,Gliosphere size (diameter),VTC-001 GSCs; n = 4,significant decrease in gliosphere size
same,Gliosphere number,VTC-001 GSCs; n = 6,"significant decrease in gliosphere size as assessed by diameter measurement (Fig. 6B), and number"
same,GSC frequency / self-renewal (limiting dilution),VTC-034 GSCs,"significant decrease in VTC-001, VTC-034, and VTC-037 GSC frequency"
same,GSC frequency / self-renewal (limiting dilution),VTC-037 GSCs,"significant decrease in VTC-001, VTC-034, and VTC-037 GSC frequency"
same,Notch1 protein expression,Notch1,significantly decreased Notch1 expression at the protein level
same,GBM22-derived gliosphere size (diameter),PDX GBM22 cells; n = 5,significantly decreases GBM22-derived gliosphere size
same,GBM22-derived gliosphere number,PDX GBM22 cells; n = 6,"significantly decreases GBM22-derived gliosphere size as assessed by diameter measurement (Fig. 8C), and number"
